ChEMBL document CHEMBL5380822, “Design, Synthesis, and Biological Evaluation of Novel Hybrids Containing Dihydrochalcone as Tyrosinase Inhibitors to Treat Skin Hyperpigmentation” (J Med Chem, 2023)
Calls of active or inactive are those of the source. The rule behind the calls is not given here.

Legend:
Mushroom tyrosinase [1] = target: T1, Mushroom tyrosinase (Agaricus bisporus, UniProt O42713+Q00024+C7FF04+C7FF05); experiment: Inhibition of Agaricus bisporus tyrosinase using L-tyrosine as substrate preincubated with compound for 20 mins followed by substrate addition measured after 10 mins by absorbance based assay
Cavia porcellus [2] = experiment: Anti-melanogenic activity in guinea pig model of UV-induced skin pigmentation assessed as reduction in melanin production at 1 mM administered topically as CP formulation for 2 weeks measured after 3 days by Fontana-Masson staining based analysis; type: functional, organism-based; conditions: time 17.0 day
[3] = Permeability in pig skin explant Franz diffusion cell model assessed as compound remaining intradermal at 2 mg/ml, TOPp measured after 4 hrs by HPLC analysis; type: ADME, tissue-based, Sus scrofa, Skin of body; conditions: topical_or_ocular
A-375 [4] = experiment: Cytotoxicity against human A-375 cells at 50 uM incubated for 72 hrs by MTT assay; type: toxicity, cell-based; conditions: a-375, 72 h
[5] = Permeability in pig skin explant Franz diffusion cell model assessed as compound remaining intradermal at 2 mg/ml, TOPp measured after 2 hrs by HPLC analysis; type: ADME, tissue-based, Sus scrofa, Skin of body; conditions: topical_or_ocular
[6] = Drug distribution in pig skin epidermis at 2 mg/ml, TOPp measured after 2 hrs by OrbiSIMS imaging analysis; type: ADME, tissue-based, Sus scrofa; conditions: topical_or_ocular
Cavia porcellus [7] = experiment: Anti-melanogenic activity in guinea pig model of UV-induced skin pigmentation assessed as inhibition of melanin production administered topically for 2 weeks measured after 3 days by Fontana-Masson staining based analysis; type: functional, organism-based; conditions: time 17.0 day
B16-F10 [8] = experiment: Downregulation of MiTF level in mouse B16-F10 cells incubated for 72 hrs by Western blot analysis; type: functional, cell-based; conditions: dose 0.1-2 µM
[9] = Permeability in pig skin explant Franz diffusion cell model assessed as compound remaining transdermal at 2 mg/ml, TOPp measured for 0.5 to 24 hrs by HPLC analysis; type: ADME, tissue-based, Sus scrofa, Skin of body; conditions: topical_or_ocular, time 0.5-24 hrs
Cavia porcellus [10] = experiment: Anti-melanogenic activity in guinea pig model of UV-induced skin pigmentation assessed as reduction in melanin production at 1 mM administered topically as PG formulation for 2 weeks measured after 3 days by Fontana-Masson staining based analysis; type: functional, organism-based; conditions: time 17.0 day
[11] = target: T2, Tyrosinase (Homo sapiens) (UniProt P14679); experiment: Inhibition of TYR in alpha-MSH-stimulated human A-375 cells using L-Dopa as substrate at 20 uM incubated for 24 hrs by absorbance based assay; type: cell-based
T2 sequence (whole entry): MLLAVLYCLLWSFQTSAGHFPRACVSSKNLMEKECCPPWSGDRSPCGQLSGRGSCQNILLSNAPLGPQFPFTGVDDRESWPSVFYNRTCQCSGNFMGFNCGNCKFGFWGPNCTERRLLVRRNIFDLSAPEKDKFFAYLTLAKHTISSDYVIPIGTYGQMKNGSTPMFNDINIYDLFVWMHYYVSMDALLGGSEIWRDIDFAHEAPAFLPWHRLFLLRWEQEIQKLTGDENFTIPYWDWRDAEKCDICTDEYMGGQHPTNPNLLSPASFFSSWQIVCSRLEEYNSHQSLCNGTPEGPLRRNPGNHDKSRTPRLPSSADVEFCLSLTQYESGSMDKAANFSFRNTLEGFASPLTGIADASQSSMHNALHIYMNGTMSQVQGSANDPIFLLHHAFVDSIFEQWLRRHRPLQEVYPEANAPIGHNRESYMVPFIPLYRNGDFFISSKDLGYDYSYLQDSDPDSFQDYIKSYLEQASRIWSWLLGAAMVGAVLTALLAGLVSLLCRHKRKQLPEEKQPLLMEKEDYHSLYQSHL

B16-F10 [12] = experiment: Cytotoxicity against mouse B16-F10 cells at 50 uM incubated for 72 hrs by MTT assay; type: toxicity, cell-based; conditions: b16-f10, 72 h
[13] = target: T3, Tyrosinase (Mus musculus) (UniProt P11344); experiment: Inhibition of TYR in alpha-MSH-stimulated mouse B16-F10 cells using L-Dopa as substrate incubated for 24 hrs by absorbance based assay; type: cell-based; conditions: dose 5-25 µM
T3 sequence (whole entry): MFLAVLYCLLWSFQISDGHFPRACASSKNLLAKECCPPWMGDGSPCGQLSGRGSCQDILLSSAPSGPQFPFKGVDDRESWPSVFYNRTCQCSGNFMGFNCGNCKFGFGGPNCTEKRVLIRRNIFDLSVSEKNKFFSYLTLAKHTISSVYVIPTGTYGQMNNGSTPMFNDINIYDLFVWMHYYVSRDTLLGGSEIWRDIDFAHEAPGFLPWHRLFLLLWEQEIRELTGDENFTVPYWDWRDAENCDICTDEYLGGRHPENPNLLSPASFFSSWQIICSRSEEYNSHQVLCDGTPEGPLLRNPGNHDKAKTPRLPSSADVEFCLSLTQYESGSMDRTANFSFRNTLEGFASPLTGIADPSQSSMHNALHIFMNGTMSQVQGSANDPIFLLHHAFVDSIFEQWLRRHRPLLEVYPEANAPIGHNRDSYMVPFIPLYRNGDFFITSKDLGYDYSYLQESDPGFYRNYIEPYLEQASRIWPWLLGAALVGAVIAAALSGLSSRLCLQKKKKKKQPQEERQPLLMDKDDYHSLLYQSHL

Mushroom tyrosinase [14] = target: T1, Mushroom tyrosinase; experiment: Inhibition of Agaricus bisporus tyrosinase using L-dopa as substrate preincubated with compound for 20 mins followed by substrate addition measured after 5 mins by absorbance based assay
Cavia porcellus [15] = experiment: Anti-melanogenic activity in guinea pig model of UV-induced skin pigmentation assessed as healing of scorching skin administered topically for 2 weeks measured after 3 days by Fontana-Masson staining based analysis; type: functional, organism-based; conditions: dose 0.5-1 mM, time 17.0 day
B16-F10 [16] = experiment: Downregulation of TYR in mouse B16-F10 cells incubated for 72 hrs by Western blot analysis; type: functional, cell-based; conditions: dose 0.1-2 µM
B16-F10 [17] = experiment: Anti-melanogenic activity against alpha-MSH-stimulated mouse B16-F10 cells assessed as decrease in melanin content incubated for 24 hrs by absorbance based assay; type: functional, cell-based; conditions: dose 5-25 µM
A-375 [18] = experiment: Anti-melanogenic activity against alpha-MSH-stimulated human A-375 cells assessed as decrease in melanin content at 20 uM incubated for 24 hrs by absorbance based assay; type: functional, cell-based

Structure (SMILES)	IC50 (Mushroom tyrosinase [1]) [µM]	IC50 (Mushroom tyrosinase [14]) [µM]	further results
O=C(CCc1ccc(O)cc1O)c1ccc(O)cc1O	0.05	0.064	Activity (Cavia porcellus [2]): Active; Activity [3]: 3.56%; Activity (A-375 [4]): Toxic; Activity [5]: 26.77%; Drug uptake [6]: Active; Activity (Cavia porcellus [7]): Dose-Dependent Effect; Activity (B16-F10 [8]): Dose-Dependent Effect; Activity [9]: 1.2%; Activity (Cavia porcellus [10]): Active; inhibition [11]: Active; Activity (B16-F10 [12]): Non-Toxic; inhibition [13]: Dose-Dependent Effect; Activity (Cavia porcellus [15]): Dose-Dependent Effect; Activity (B16-F10 [16]): Dose-Dependent Effect; Activity (B16-F10 [17]): Dose-Dependent Effect; Activity (A-375 [18]): Active
COc1ccc(C(=O)CCc2ccccc2O)cc1	> 10	> 10	–
O=C(CCc1ccc(O)cc1O)c1ccccc1	0.183	0.625	–
COc1cccc(CCC(=O)c2ccc(O)cc2O)c1OC	> 10	> 10	–
Cc1ccccc1C(=O)CCc1ccc(O)cc1O	0.123	0.239	–
O=C(CCc1ccccc1O)c1ccc(O)cc1O	> 10	> 10	–
COc1ccc(CCC(=O)c2ccc(O)cc2O)cc1O	> 10	> 10	–
COc1ccc(C(=O)CCc2ccc(O)cc2)c(O)c1	> 10	> 10	–
O=C(CCc1ccc(O)cc1O)c1ccccc1O	0.069	0.286	–
COc1cc(CCC(=O)c2ccc(O)cc2O)cc(OC)c1OC	> 10	> 10	–
O=C(CCc1ccc(O)cc1O)c1ccc(-c2ccccc2)cc1	0.331	1.431	–
O=C(CCc1ccc(O)cc1O)c1ccc(Cl)cc1Cl	0.119	0.189	–
O=C(CCc1cccc([N+](=O)[O-])c1)c1ccc(O)cc1O	> 10	> 10	–
COc1ccc(C(=O)CCc2ccc(O)cc2)cc1	> 10	> 10	–
COc1ccc(CCC(=O)c2ccc(O)cc2O)c(O)c1	> 10	> 10	–
CC(C)c1ccc(C(=O)CCc2ccc(O)cc2O)cc1	0.232	0.644	–
